Source: ChEMBL document CHEMBL5579838, “Design, synthesis and antitumor activity of a novel FGFR2-selective degrader to overcome resistance of the FGFR2V564F gatekeeper mutation based on a pan-FGFR inhibitor” (Eur J Med Chem, 2024)
Each block holds one compound with its values, some of them ahead of it. Calls of active or inactive are those of the source. No cut-off for these calls is given here.

How the values were obtained:
[1] = biological target: T1, Fibroblast growth factor receptor 3 (Homo sapiens, UniProt P22607); assay: Induction of FGFR3 degradation in human MCF7 cells assessed as reduction in FGFR3 level at 0 to 300 nM measured after 24 hrs by Western blot analysis; type: cell-based; settings: dose 0-300 nM
Target sequence in this assay (P22607 23-806 limits assumed): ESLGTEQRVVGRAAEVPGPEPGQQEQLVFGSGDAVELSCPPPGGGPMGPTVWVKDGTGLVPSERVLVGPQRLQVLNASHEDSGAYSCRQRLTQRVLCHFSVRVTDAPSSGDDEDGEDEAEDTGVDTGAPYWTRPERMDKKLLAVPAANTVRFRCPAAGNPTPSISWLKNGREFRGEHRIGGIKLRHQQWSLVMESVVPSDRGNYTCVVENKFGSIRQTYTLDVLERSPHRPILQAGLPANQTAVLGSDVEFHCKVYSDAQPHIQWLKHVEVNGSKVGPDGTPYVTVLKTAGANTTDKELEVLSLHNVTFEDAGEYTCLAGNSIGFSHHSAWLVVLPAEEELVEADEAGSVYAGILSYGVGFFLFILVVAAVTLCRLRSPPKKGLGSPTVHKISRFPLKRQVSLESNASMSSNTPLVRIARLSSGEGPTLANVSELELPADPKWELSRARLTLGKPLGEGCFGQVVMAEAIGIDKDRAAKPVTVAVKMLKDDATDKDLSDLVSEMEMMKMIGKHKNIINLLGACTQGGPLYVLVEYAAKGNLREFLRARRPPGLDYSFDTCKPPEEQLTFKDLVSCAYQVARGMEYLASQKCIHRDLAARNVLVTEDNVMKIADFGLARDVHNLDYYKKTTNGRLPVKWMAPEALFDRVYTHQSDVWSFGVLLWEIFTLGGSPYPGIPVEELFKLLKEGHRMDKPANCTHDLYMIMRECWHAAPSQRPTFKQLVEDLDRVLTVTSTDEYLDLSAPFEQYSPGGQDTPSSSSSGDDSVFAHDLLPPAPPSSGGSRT

[2] = biological target: T2, Fibroblast growth factor receptor 4 (Homo sapiens, UniProt P22455); assay: Induction of FGFR4 degradation in human Huh-7 cells assessed as reduction in FGFR4 level at 0 to 300 nM measured after 24 hrs by Western blot analysis; type: cell-based; settings: dose 0-300 nM
[3] = biological target: T3, Fibroblast growth factor receptor 1 (Homo sapiens, UniProt P11362); assay: Induction of FGFR1 degradation in human BXPC-3 cells assessed as reduction in FGFR1 level at 300 nM measured after 24 hrs by Western blot analysis relative to control; type: cell-based; parameters: scale not given: the % may be the effect or the level left
[4] = biological target: Vascular endothelial growth factor receptor 2 (Homo sapiens) (UniProt P35968); assay: Induction of VEGFR2 (unknown origin) degradation
[5] = tested on: KATO III stomach cancer cell line; assay: Inhibition of PLC-gamma autophosphorylation in human KATO III cells at 1 to 10 nM measured after 24 hrs by Western blot analysis; type: cell-based; settings: dose 1-10 nM
[6] = biological target: T4, Fibroblast growth factor receptor substrate 2 (Homo sapiens) (UniProt Q8WU20); assay: Inhibition of FRS2 autophosphorylation in human KATO III cells at 1 to 10 nM measured after 24 hrs by Western blot analysis; type: cell-based; settings: KATO III stomach cancer cell line, dose 1-10 nM
T4 sequence (whole entry): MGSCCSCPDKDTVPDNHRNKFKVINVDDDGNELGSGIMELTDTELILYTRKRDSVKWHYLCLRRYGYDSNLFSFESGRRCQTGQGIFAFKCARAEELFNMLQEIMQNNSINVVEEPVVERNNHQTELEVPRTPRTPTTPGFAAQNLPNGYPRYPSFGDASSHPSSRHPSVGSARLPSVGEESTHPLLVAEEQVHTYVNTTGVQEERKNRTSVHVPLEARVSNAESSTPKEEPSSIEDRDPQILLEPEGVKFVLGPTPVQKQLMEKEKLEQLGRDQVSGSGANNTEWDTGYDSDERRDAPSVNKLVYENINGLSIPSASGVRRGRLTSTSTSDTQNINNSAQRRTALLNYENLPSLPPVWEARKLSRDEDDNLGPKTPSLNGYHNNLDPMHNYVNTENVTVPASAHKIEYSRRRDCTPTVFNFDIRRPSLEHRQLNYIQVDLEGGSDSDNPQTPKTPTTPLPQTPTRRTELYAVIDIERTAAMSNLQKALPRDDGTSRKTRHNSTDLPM

[7] = biological target: T3, Fibroblast growth factor receptor 1
Target sequence in this assay (P11362 whole entry): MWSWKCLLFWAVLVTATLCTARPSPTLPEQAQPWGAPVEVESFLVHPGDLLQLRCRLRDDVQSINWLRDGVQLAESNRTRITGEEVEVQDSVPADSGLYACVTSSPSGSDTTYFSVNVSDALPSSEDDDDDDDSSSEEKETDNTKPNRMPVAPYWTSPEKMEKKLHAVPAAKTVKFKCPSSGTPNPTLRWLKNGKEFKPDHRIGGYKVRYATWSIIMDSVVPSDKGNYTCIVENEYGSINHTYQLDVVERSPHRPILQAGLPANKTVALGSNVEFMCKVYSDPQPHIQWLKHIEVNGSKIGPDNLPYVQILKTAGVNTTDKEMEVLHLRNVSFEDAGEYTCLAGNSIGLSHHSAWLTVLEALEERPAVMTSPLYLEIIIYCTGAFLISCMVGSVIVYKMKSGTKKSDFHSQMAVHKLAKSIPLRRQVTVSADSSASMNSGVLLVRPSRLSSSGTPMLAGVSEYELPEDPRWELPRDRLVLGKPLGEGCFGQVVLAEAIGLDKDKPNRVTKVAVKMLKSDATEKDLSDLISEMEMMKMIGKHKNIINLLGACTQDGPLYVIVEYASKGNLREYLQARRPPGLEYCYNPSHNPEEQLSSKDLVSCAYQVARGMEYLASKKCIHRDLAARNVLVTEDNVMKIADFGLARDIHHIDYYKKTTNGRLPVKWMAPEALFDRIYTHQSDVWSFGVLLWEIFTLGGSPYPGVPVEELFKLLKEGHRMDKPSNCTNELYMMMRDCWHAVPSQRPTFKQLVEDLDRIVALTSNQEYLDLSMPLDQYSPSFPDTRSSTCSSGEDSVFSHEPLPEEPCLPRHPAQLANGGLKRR
Description: Inhibition of FGFR1 (unknown origin)

[8] = biological target: T1, Fibroblast growth factor receptor 3
Target sequence in this assay (P22607 whole entry): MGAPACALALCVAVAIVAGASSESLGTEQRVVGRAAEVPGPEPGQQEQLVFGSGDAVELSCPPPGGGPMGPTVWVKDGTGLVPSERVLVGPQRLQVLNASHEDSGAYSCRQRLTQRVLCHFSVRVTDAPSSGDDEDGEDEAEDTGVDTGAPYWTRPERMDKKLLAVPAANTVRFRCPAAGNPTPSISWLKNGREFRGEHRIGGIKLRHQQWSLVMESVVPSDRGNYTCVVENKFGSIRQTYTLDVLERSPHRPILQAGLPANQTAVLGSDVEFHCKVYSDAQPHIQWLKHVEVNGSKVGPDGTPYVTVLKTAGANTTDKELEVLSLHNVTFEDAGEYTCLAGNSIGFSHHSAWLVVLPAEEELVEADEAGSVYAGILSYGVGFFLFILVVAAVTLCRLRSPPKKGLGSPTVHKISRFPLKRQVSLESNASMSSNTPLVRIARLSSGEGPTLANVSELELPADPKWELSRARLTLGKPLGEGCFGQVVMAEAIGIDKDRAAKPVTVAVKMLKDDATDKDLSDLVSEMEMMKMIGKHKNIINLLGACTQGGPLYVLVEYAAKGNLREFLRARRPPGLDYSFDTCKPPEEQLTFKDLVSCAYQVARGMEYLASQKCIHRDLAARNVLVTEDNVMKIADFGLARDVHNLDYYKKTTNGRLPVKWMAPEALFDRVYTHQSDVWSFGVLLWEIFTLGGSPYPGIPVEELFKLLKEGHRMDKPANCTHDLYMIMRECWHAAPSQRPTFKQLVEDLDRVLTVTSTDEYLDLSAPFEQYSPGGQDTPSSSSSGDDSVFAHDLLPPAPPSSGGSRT
Description: Inhibition of FGFR3 (unknown origin)

[9] = biological target: T2, Fibroblast growth factor receptor 4
Target sequence in this assay (P22455 whole entry): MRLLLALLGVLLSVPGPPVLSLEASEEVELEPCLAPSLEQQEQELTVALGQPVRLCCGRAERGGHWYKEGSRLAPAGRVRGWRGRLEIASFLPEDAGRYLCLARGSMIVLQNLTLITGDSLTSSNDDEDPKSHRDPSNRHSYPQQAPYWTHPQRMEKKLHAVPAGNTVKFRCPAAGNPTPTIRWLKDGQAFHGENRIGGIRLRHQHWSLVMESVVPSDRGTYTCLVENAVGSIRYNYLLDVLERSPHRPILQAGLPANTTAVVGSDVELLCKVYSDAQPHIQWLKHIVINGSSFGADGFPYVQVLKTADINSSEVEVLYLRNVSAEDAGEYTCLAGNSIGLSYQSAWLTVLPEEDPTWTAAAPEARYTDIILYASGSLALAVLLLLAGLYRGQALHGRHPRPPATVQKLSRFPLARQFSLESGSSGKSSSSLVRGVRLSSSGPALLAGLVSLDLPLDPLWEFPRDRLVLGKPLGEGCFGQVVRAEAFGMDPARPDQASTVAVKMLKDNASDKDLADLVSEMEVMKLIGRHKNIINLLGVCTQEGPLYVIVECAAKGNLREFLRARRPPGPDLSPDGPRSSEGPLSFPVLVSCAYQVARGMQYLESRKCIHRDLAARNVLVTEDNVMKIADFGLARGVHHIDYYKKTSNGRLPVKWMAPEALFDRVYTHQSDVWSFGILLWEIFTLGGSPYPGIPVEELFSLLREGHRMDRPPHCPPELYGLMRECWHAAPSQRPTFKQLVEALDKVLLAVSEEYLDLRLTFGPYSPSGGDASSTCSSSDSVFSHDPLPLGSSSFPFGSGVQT
Description: Inhibition of FGFR4 (unknown origin)

BaF3 [10] = assay: Antiproliferative activity against mouse BaF3 cells stably expressing wild type ETV6-FGFR1 fusion protein incubated for 72 hrs by CCK-8 assay; type: functional, cell-based; settings: BaF3, 72 h
BaF3 [11] = assay: Antiproliferative activity against mouse BaF3 cells stably expressing wild type ETV6-FGFR2 fusion protein incubated for 72 hrs by CCK-8 assay; type: functional, cell-based; settings: BaF3, 72 h
BaF3 [12] = assay: Antiproliferative activity against mouse BaF3 cells stably expressing wild type ETV6-FGFR3 fusion protein incubated for 72 hrs by CCK-8 assay; type: functional, cell-based; settings: BaF3, 72 h
BaF3 [13] = assay: Antiproliferative activity against mouse BaF3 cells stably expressing wild type ETV6-FGFR4 fusion protein incubated for 72 hrs by CCK-8 assay; type: functional, cell-based; settings: BaF3, 72 h
AN3-CA [14] = assay: Inhibition of cell migration in adherent human AN3-CA cells overexpressing FGFR2 assessed as inhibition of lateral migration at 10 nM incubated for 48 hrs by wound healing assay relative to control; type: functional
[15] = tested on: KATO III stomach cancer cell line; assay: Induction of cell cycle arrest at G0/G1 phase in FGFR2 amplified human KATO III cells at 0.1 to 10 nM incubated for 24 hrs by PI staining based flow cytometry analysis; type: functional; settings: dose 0.1-10 nM
[16] = tested on: KATO III stomach cancer cell line; assay: Induction of cell cycle arrest at G0/G1 phase in FGFR2 amplified human KATO III cells assessed as inhibition of cyclin D1 protein expression at 0.1 to 10 nM by Western blot analysis; type: functional, cell-based; settings: dose 0.1-10 nM
[17] = tested on: KATO III stomach cancer cell line; assay: Induction of cell cycle arrest at G0/G1 phase in FGFR2 amplified human KATO III cells assessed as inhibition of CDK4 protein expression at 0.1 to 10 nM by Western blot analysis; type: functional, cell-based; settings: dose 0.1-10 nM
[18] = tested on: KATO III stomach cancer cell line; assay: Induction of cell cycle arrest at G0/G1 phase in FGFR2 amplified human KATO III cells assessed as inhibition of CDK6 protein expression at 0.1 to 10 nM by Western blot analysis; type: functional, cell-based; settings: dose 0.1-10 nM
[19] = Cmax in overnight fasted mouse at 1 mg/kg, iv administered as single dose by LC-MS/MS analysis; type: ADME, organism-based; settings: in vivo
[20] = Half life in overnight fasted mouse at 1 mg/kg, iv administered as single dose by LC-MS/MS analysis; type: ADME, organism-based; settings: in vivo
[21] = AUC (0 to t) in overnight fasted mouse at 1 mg/kg, iv administered as single dose by LC-MS/MS analysis; type: ADME, organism-based; settings: in vivo
[22] = Cmax in overnight fasted mouse at 10 mg/kg, po administered as single dose by LC-MS/MS analysis; type: ADME, organism-based; settings: in vivo
[23] = Tmax in overnight fasted mouse at 10 mg/kg, po administered as single dose by LC-MS/MS analysis; type: ADME, organism-based; settings: in vivo
[24] = Half life in overnight fasted mouse at 10 mg/kg, po administered as single dose by LC-MS/MS analysis; type: ADME, organism-based; settings: in vivo
[25] = AUC (0 to t) in overnight fasted mouse at 10 mg/kg, po administered as single dose by LC-MS/MS analysis; type: ADME, organism-based; settings: in vivo
[26] = Oral bioavailability in overnight fasted mouse at 10 mg/kg administered as single dose by LC-MS/MS analysis; type: ADME, organism-based; settings: in vivo
[27] = biological target: T1, Fibroblast growth factor receptor 3; assay: Induction of FGFR3 degradation in human MCF7 cells assessed as reduction in FGFR3 level measured after 24 hrs by Western blot analysis; type: cell-based
Target sequence in this assay (P22607 whole entry): as the sequence (P22607 whole entry) above

[28] = biological target: T2, Fibroblast growth factor receptor 4; assay: Induction of FGFR4 degradation in human Huh-7 cells assessed as reduction in FGFR4 level measured after 24 hrs by Western blot analysis; type: cell-based
Target sequence in this assay (P22455 whole entry): as the sequence (P22455 whole entry) above

[29] = biological target: T3, Fibroblast growth factor receptor 1; assay: Induction of FGFR1 degradation in human BXPC-3 cells assessed as reduction in FGFR1 level measured after 24 hrs by Western blot analysis; type: cell-based
Target sequence in this assay (P11362 whole entry): as the sequence (P11362 whole entry) above

[30] = tested on: KATO III stomach cancer cell line; assay: cells; settings: Homo sapiens, 72 h
Description: Antiproliferative activity against FGFR2 amplified human KATO III cells measured after 3 days by MTT assay

SNU-16 = assay: cells; settings: Homo sapiens, SNU-16, 72 h
Description: Antiproliferative activity against FGFR2 amplified human SNU-16 cells measured after 72 hrs by MTT assay

AN3-CA [31] = assay: cells; settings: Homo sapiens, 72 h
Description: Antiproliferative activity against human AN3-CA cells overexpressing FGFR2 measured after 72 hrs by MTT assay

NCI-H1975 = assay: cells; settings: Homo sapiens, NCI-H1975, 72 h
A2780 = assay: cells; settings: Homo sapiens, A2780, 72 h
BXPC-3 = assay: cells; settings: Homo sapiens, BXPC-3, 72 h
cells = settings: Homo sapiens, Huh-7, 72 h
MDA-MB-231 = assay: cells; settings: Homo sapiens, MDA-MB-231, 72 h
SNU-449 = assay: cells; settings: Homo sapiens, SNU-449, 72 h
HCT-116 = assay: cells; settings: Homo sapiens, HCT-116, 72 h
MCF7 = assay: cells; settings: Homo sapiens, MCF7, 72 h
in vitro [32] = settings: human, L02 cells
in vitro [33] = settings: human, HEK293T cells
[34] = biological target: von Hippel-Lindau disease tumor suppressor/Fibroblast growth factor receptor 2 (Homo sapiens, UniProt P21802+P40337); assay: PROTAC activity at VHL/FGFR2 in human KATO III cells assessed as induction of FGFR2 degradation incubated for 24 hrs by Western blot analysis; type: cell-based; settings: kato iii stomach cancer cell line
Chain of von Hippel-Lindau disease tumor suppressor/Fibroblast growth factor receptor 2 (P21802 whole entry): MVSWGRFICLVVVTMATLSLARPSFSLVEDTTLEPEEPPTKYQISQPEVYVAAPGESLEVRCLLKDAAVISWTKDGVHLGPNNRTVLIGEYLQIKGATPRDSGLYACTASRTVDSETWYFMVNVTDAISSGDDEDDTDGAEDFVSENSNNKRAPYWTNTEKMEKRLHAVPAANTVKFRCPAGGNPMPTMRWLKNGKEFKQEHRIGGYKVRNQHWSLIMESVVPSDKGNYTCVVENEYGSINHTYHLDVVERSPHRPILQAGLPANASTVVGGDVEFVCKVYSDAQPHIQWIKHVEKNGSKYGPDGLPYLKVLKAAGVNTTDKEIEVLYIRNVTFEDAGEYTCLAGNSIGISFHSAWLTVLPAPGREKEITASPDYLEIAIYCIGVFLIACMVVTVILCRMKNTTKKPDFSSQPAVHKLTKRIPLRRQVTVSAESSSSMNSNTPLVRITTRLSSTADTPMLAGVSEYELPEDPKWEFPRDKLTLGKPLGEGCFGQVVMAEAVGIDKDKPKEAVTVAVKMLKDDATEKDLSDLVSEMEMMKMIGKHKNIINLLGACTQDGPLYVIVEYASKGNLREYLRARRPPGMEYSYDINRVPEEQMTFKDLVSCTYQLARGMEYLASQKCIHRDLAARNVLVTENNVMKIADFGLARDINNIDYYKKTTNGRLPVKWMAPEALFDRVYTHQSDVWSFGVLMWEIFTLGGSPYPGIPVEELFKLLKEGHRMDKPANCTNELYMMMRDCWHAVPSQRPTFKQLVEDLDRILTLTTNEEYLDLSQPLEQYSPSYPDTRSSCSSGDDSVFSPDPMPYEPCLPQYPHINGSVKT
Chain of von Hippel-Lindau disease tumor suppressor/Fibroblast growth factor receptor 2 (P40337 whole entry): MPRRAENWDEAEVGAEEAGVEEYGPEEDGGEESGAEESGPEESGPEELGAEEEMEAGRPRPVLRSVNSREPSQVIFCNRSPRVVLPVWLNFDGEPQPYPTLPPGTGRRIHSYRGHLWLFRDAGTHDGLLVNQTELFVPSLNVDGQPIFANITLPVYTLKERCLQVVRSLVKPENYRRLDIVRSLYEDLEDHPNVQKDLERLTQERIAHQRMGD

Activity [1]: inactive
Activity [2]: inactive
Activity [3]: 30%
Activity [4]: inactive
inhibition [6]: Active
IC50 [7]: 0.00147 µM
IC50 [8]: 0.00126 µM
IC50 [9]: 0.0151 µM
IC50 (BaF3 [10]): 0.0275 µM
IC50 (BaF3 [11]): 0.00091 µM
IC50 (BaF3 [12]): 0.0002 µM
IC50 (BaF3 [13]): 0.0327 µM
Cmax [19]: 1.94 µg/mL
half-life [20]: 4.14 min
AUC(0-t) [21]: 0.151 µg·h/mL
Cmax [22]: 0.0194 µg/mL
Tmax [23]: 30 min
half-life [24]: 45 min
AUC(0-t) [25]: 0.00961 µg·h/mL
bioavailability [26]: 0.64%
DC50 [27]: > 0.3 µM
DC50 [28]: > 0.3 µM
DC50 [29]: > 0.3 µM
IC50 [30]: 0.00079 µM
IC50 (SNU-16): 0.000207 µM
IC50 (AN3-CA [31]): 0.00463 µM
IC50 (NCI-H1975): 2.24 µM
IC50 (A2780): 0.627 µM
IC50 (BXPC-3): 0.997 µM
IC50 (cells): > 5 µM
IC50 (MDA-MB-231): 2.52 µM
IC50 (SNU-449): 0.923 µM
IC50 (HCT-116): 1.91 µM
IC50 (MCF7): 2.98 µM
IC50 at 72 h (in vitro [32]): > 5 µM
IC50 at 72 h (in vitro [33]): 2.14 µM
SMILES: C[C@@H](Oc1ccc2[nH]nc(/C=C/c3cnn(CCNC(=O)CCCCCNc4ccc5c(c4)C(=O)N(C4CCC(=O)NC4=O)C5=O)c3)c2c1)c1c(Cl)cncc1Cl (stereo partly drawn)
inhibition [5]: Active
inhibition at 0.01 µM (AN3-CA [14]): > 15%
Activity [15]: Active
Activity [16]: Active
Activity [17]: Active
Activity [18]: Active

DC50 [34]: 0.07 µM
SMILES: COc1cc(OC)c(Cl)c(NC(=O)N(C)c2cc(Nc3ccc(N4CCN(CC(=O)N[C@H](C(=O)N5C[C@H](O)C[C@H]5C(=O)N[C@@H](C)c5ccc(-c6scnc6C)cc5)C(C)(C)C)CC4)cc3)ncn2)c1Cl
